Results published in patent publication US10675268B2, “Somatostatin receptor subtype 4 (SSTR4) agonists” (Centrexion Therapeutics Corporation, priority 2013, dated 2020).

Test: Metabolic stability in pooled human liver microsomes (half-life)
Assay type: in vitro ADME
Settings: 37° C., 1 μM test compound
Procedure: The metabolic stability of the compounds according to the invention may be investigated as follows:
The metabolic degradation of the test compound is assayed at 37° C. with pooled human liver microsomes. The final incubation volume of 100 μl per time point contains TRIS buffer pH 7.6 at room temperature (0.1 M), magnesium chloride (5 mM), microsomal protein (1 mg/mL) and the test compound at a final concentration of 1 μM. Following a short preincubation period at 37° C., the reactions are initiated by addition of beta-nicotinamide adenine dinucleotide phosphate, reduced form (NADPH, 1 mM), and terminated by transferring an aliquot into solvent after different time points. After centrifugation (10000 g, 5 min), an aliquot of the supernatant is assayed by LC-MS/MS for the amount of parent compound. The half-life is determined by the slope of the semi-logarithmic plot of the concentration-time profile.
With `Cc1cccc2c(C(C)(C)NC(=O)[C@H]3[C@@H]4CNC[C@@H]43)n[nH]c12` [Example 93] the “Half-life t1/2” value was greater than 2.17 h.
With `CCc1ccccc1OCC(C)(C)NC(=O)[C@H]1[C@@H]2CNC[C@@H]21.Cl` [Example 39] the “Half-life t1/2” value was greater than 2.17 h.
With `CC(C)(NC(=O)[C@H]1[C@@H]2CNC[C@@H]21)c1n[nH]c2ccccc12` [Example 94] the “Half-life t1/2” value was greater than 2.17 h.
For `Cc1cc(C2CC2)ccc1OCC(C)(C)NC(=O)[C@H]1[C@@H]2CNC[C@@H]21` [Example 65], the “Half-life t1/2” value was greater than 2.17 h.
In the case of `CC(C)(NC(=O)[C@H]1[C@@H]2CNC[C@@H]21)c1n[nH]c2c(C(F)(F)F)cccc12` [Example 110], the “Half-life t1/2” value is reported as greater than 2.17 h.
